# Laboratory results: US20070275911A1, “Targeted Drug-Formaldehyde Conjugates and Methods of Making and Using the Same” (priority 2003, published 2007)
# What was measured:
# MDA-MB-435 cells [1] = assay: Drug distribution by fluorescence microscopy; assay type: cell-based, human; conditions: for cellular distribution of fluorescence: 500 nM
# Description: Furthermore, once the trigger has fired the DOX fluorophore should appear nuclear.
# Analysis of drug distribution by fluorescence microscopy: MDA-MB-435 cells in log phase growth were dissociated with trypsin-EDTA and counted. Cells were suspended in media at 8.3×10^4 cells/mL and 3 mL of cell solution was aliquoted into 6 well plates and allowed to adhere overnight. The cells were treated with 0.5 μM DOX, DOXSF, or DOX-TEG-TAM for various amounts of time (5 min, 20 min, 40 min, 1 h, and 3 h). Drug treatment was accomplished by addition of 30 μL of 100× drug solution (50 μM) to 3 mL of media which was mixed and immediately added to the cells.
# Following drug treatment, the media was removed and cells were washed once with 3 mL of serum- and phenol red-free RPMI 1640 at room temperature and 3 mL of the same media was then added back to each well. The cells were then immediately analyzed by fluorescence microscopy. Each condition was performed individually to minimize the amount of time between drug treatment and fluorescence detection.
# MDA-MB-435 cells [2] = assay: Uptake, release and competition by flow cytometry; assay type: cell-based, human; conditions: for decrease of uptake in the presence of tamoxifen: 10 μM tamoxifen competitor
# Description: Additionally, uptake and release data were obtained for DOX, DOXSF, and DOX-TEG-TAM in estrogen receptor-negative MDA-MB-435 and MDA-MB-231 cells.
# Competitive inhibition of drug uptake: If DOX-TEG-TAM targeting is AEBS mediated, the presence of a competitive ligand should inhibit uptake.
# (§1) Uptake and release of DOX, DOXSF, and DOX-TEG-TAM: The uptake and release of DOX-TEG-TAM in breast cancer cells relative to DOX and untargeted DOXSF was performed as described with modifications. Breast cancer cells in log phase growth were dissociated with trypsin-EDTA, counted, resuspended in media at 1.5×10^5 cells/mL, and plated into six well plates (450,000 cells/well) and allowed to adhere overnight. The cells were treated with 0.5 μM DOX, DOXSF, or DOX-TEG-TAM for various amounts of time (20 min, 40 min, and 60 min). Drug treatment was accomplished by addition of 30 μL of 100× drug solution (50 μM) to 3 mL of media which was mixed and immediately added to the cells. For each time point, the media was removed, cells were trypsinized, and trypsinization was quenched with 3 mL phenol red-free RPMI 1640 media (no serum) at 4° C. Cells were pelleted by centrifugation at 300 g for 5 min at 10° C. The supernatant was decanted and the cells were re-suspended in 1 mL serum- and phenol red-free RPMI 1640 media and placed on ice.
# (§2) For drug retention samples, the cells were treated for 1 h with 0.5 μM DOX, DOXSF, or DOX-TEG-TAM. Following drug treatment, the media was removed and replaced with 3 mL fresh, 37° C., full (containing serum and phenol red indicator) cell media and the cells were incubated for various times (0.5 h, 1 h, 3 h, and 6 h). Following the allotted release times, the cells were prepared as described above. Drug treatment was performed such that all cell samples would be prepared within 2 h.
# (§3) The extent of drug uptake and retention was measured by flow cytometry. Cells were analyzed with excitation at 488 nm (15 mW Ar ion laser), with emission monitored between 570 and 600 nm. Instrument settings were optimized for each cell line and held constant for all experiments; 10,000 cells were analyzed for anthracycline fluorescence. The data are presented as the mean fluorescence for each condition with the background, drug-free cell fluorescence subtracted.
# The cell samples were prepared and analyzed by flow cytometry as described above.
# Rtx-6 cells = assay: Growth inhibition of Rtx-6 cells, 4 h treatment; assay type: cell-based
# Description: Effect of DOX-TEG-TAM on AEBS-negative Rtx-6 breast cancer cells: Rtx-6 cells, kindly provided by Dr. Marc Poirot (Toulouse, France), were evaluated as an AEBS-negative control cell line. […] The Rtx-6 cells were utilized to determine the effect of the absence of AEBS on the cytotoxicity and uptake of DOX, DOXSF, and DOX-TEG-TAM.
# The IC50's are compared in Table 6 with those previously determined for MCF-7, MCF-7/Adr, MDA-MB-231 and MDA-MB-435 cells. The concentrations inhibiting 50% of cell growth following 4 h treatment with DOX, DOXSP, and DOX-TEG-TAM were 200 nM, 60 nM, and 70 nM, respectively.
# Growth inhibition of Rtx-6 cells: The concentration inhibiting half the growth (IC50) was determined as previously described with minor modifications.
# MCF-7 cells [3] = assay: Uptake and release by flow cytometry; assay type: cell-based, human; conditions: for drug uptake (DOX fluorophore): MCF-7, 500 nM, up to 1 h
# Description: as §1, §2, §3
# MCF-7 cells [4] = assay: Breast cancer cell growth inhibition, 4 h treatment
# Description: (§4) Breast cancer cell growth inhibition: The ER-targeted DOX-formaldehyde conjugates, 11a-c, were evaluated against four breast cancer cell lines that differ in terms of estrogen receptor and multidrug resistance expression. MCF-7 cells are human breast adenocarcinoma cells that express estrogen receptor at a level of 195,000 sites/cell. MCF-7/Adr cells are an ER-negative, doxorubicin-resistant variant of the parent MCF-7 that express the multidrug resistance (MDR) phenotype. MDA-MB-231 and MDA-MB-435 are ER-negative human breast adenocarcinoma and ductal carcinoma cells, respectively. All cytotoxins were formulated as 100× solutions in DMSO/1% AcOH and delivered to cells as 1% DMSO (0.01% AcOH) in cell culture medium. In all experiments cell treatment lasted 4 h.
# (§5) In Vitro cellular growth inhibition experiments: The IC50 for the targeted formaldehyde conjugates and all control compounds were performed as previously described with minor modifications. All compounds were solubilized in dimethylsulfoxide containing 1% v/v acetic acid. The concentrations of all 100× DMSO/1% AcOH drug solutions was determined spectrophotometrically by absorbance at 480 nm (ε=[…]). […] For every experiment each drug level and controls were performed in hexuplicate; each experiment was performed in at least duplicate. Error bars represent one standard deviation about the mean for the six wells per lane measured for each drug concentration.
# MDA-MB-435 = assay: as above
# Description: as §4, §5
# MDA-MB-231 = assay: as above
# Description: as §4, §5
# MCF-7/Adr cells = assay: as above
# Description: as §4, §5
# [5] = MCF-7/Adr (−/+/+), 4 h treatment
compound,measurement,setting,value
"CC/C(=C(/c1ccc(O)cc1)c1ccc(OCCN(C)CCOCCOCCO/N=C/c2ccc(O)c(C(=O)NCN[C@H]3C[C@H](O[C@H]4C[C@](O)(C(=O)CO)Cc5c(O)c6c(c(O)c54)C(=O)c4c(OC)cccc4C6=O)O[C@@H](C)[C@H]3O)c2)cc1)c1ccccc1 [11c, E/Z-N-(2-Hydroxy-5-{[2-(2-{2-[(2-{4-[1-(4-hydroxy-phenyl)-2-phenyl-but-1-enyl]-phenoxy}-ethyl)-methyl-amino]-ethoxy}-ethoxy)-ethoxyimino]-methyl}-benzamide)-doxorubicin]",cellular distribution of fluorescence,MDA-MB-435 cells [1]; 20 min,cytosolic fluorescence was observed
same,cellular distribution of fluorescence,MDA-MB-435 cells [1]; 3 h,predominantly nuclear
same,fold uptake more than DOX,MDA-MB-435 cells [2]; MDA-MB-435,5 fold
same,fold uptake more than DOXSF,MDA-MB-435 cells [2]; MDA-MB-435,3 fold
same,effect of estradiol on uptake,"MDA-MB-435 cells [2]; MDA-MB-435, 20 nM estradiol",no effect
same,uptake as % of uptake in the absence of competitor,"MDA-MB-435 cells [2]; MDA-MB-435, 0.5 μM drug, 1 h, 10 μM tamoxifen",47%
same,fluorophore retention vs DOXSF or DOX,"MDA-MB-435 cells [2]; MDA-MB-435, after 1 h treatment with 500 nM",retained to a greater extent
same,IC50,Rtx-6 cells,70 nM
same,drug uptake (DOX fluorophore),MCF-7 cells [3],25 RFU
same,uptake relative to MDA-MB-435 cells,"MCF-7 cells [3]; MCF-7, 1 h, 500 nM",about 25%
same,fluorophore retention,"MCF-7 cells [3]; MCF-7, drug release after 6 h",highest level of doxorubicin fluorophore retention
same,IC50,"MCF-7 cells [4]; MCF-7 (ER/AEBS/MDR +/+/−), 4 h treatment, listed as DOX-TEG-TAM",40 ± 6 nM
same,IC50,"MDA-MB-435; MDA-MB-435 (−/+/−), 4 h treatment, listed as DOX-TEG-TAM",40 ± 6 nM
same,IC50,"MDA-MB-231; MDA-MB-231 (−/+/−), 4 h treatment, listed as DOX-TEG-TAM",30 ± 5 nM
same,fold more active than doxorubicin,MCF-7/Adr cells; MCF-7/Adr,140 fold
same,fold more cytotoxic than untargeted doxsaliform,MCF-7/Adr cells; MCF-7/Adr,28 fold
same,IC50,MCF-7/Adr cells; [5],60 ± 9 nM
"COc1cccc2c1C(=O)c1c(O)c3c(c(O)c1C2=O)C[C@@](O)(C(=O)CO)C[C@@H]3O[C@H]1C[C@H](N)[C@H](O)[C@H](C)O1 [doxorubicin, reference compound]",cellular distribution of fluorescence,MDA-MB-435 cells [1]; 20 min,observed in the nucleus
same,cellular distribution of fluorescence,MDA-MB-435 cells [1]; 3 h,exclusively nuclear
same,decrease of uptake in the presence of tamoxifen,"MDA-MB-435 cells [2]; MDA-MB-435, 0.5 μM drug, 1 h",8%
same,IC50,Rtx-6 cells,200 nM
same,drug uptake (DOX fluorophore),MCF-7 cells [3],5 RFU
same,IC50,"MCF-7 cells [4]; Homo sapiens, MCF7, 4 h",200 ± 26 nM
same,IC50,"MDA-MB-435; Homo sapiens, MDA-MB-435, 4 h",150 ± 14 nM
same,IC50,"MDA-MB-231; Homo sapiens, MDA-MB-231, 4 h",300 ± 33 nM
same,IC50,"MCF-7/Adr cells; Homo sapiens, NCI/ADR-RES, 4 h",10000 ± 1300 nM
"COc1cccc2c1C(=O)c1c(O)c3c(c(O)c1C2=O)C[C@@](O)(C(=O)CO)C[C@@H]3O[C@H]1C[C@H](NCNC(=O)c2ccccc2O)[C@H](O)[C@H](C)O1 [doxsaliform, N-(2-Hydroxybenzamido-methyl)-doxorubicin]",localization pattern,"MDA-MB-435 cells [1]; control experiment, 0.5 μM",exclusively nuclear
same,decrease of uptake in the presence of tamoxifen,"MDA-MB-435 cells [2]; MDA-MB-435, 0.5 μM drug, 1 h",6%
same,IC50,Rtx-6 cells,60 nM
same,drug uptake (DOX fluorophore),MCF-7 cells [3],16 RFU
same,fold less cytotoxic than 11a-c,MCF-7 cells [4]; MCF-7,2-3 fold
same,IC50,"MCF-7 cells [4]; MCF-7 (ER/AEBS/MDR +/+/−), 4 h treatment",70 ± 5 nM
same,cytotoxicity relative to 11a-c,MDA-MB-435; MDA-MB-435,equally cytotoxic
same,IC50,"MDA-MB-435; MDA-MB-435 (−/+/−), 4 h treatment",50 ± 9 nM
same,fold less cytotoxic than 11a-c,MDA-MB-231; MDA-MB-231,2-3 fold
same,IC50,"MDA-MB-231; MDA-MB-231 (−/+/−), 4 h treatment",80 ± 9 nM
same,IC50,MCF-7/Adr cells; [5],2000 ± 320 nM
